Measured values taken from patent US10286356B2, “Process for the removal of acid gases from gaseous mixtures using an aqueous solution of 2-dimethylamino-2-hydroxymethyl-1, 3-propanediol” (Dow Global Technologies LLC, priority 2014, dated 2019).

Tests used:
Boiling point (Table 1) = format: physicochemical
[1] = pKa of the alkanolamines (Table 1); format: physicochemical

| Boiling point (Boiling point (Table 1)) | SMILES | pKa [1] |
| --- | --- | --- |
| 268 ° F. | OCCNCCO [DEA, diethanolamine] | – |
| 335 ° F. | CN(C)C(CO)(CO)CO [DMTA, 2-dimethylamino-2-hydroxymethyl-1,3-propanediol] | – |

| SMILES | Boiling point (Boiling point (Table 1)) | pKa [1] |
| --- | --- | --- |
| NCCOCCO [DGA, 2-aminoethoxyethanol] | 221 ° F. | 9.4 |
